# Source: paper PMC11568248, “Targeting Candida albicans O-acetyl-L-homoserine sulfhydrylase (Met15p) in antifungal treatment” (Scientific Reports, 2024)
# B1: CaMet15NHp (Candida albicans SC5314) (protein)
# chain: PSHFDTLQLHAGQPVEKPHQPRAPPIYATTSYVFNDSKHGAQLFGLETPGYIYSRIMNPTNDVFEQRIAALEGGIGALATSSGQSAQFLAIAGLAHAGDNIISTSYLYGGTYNQFKVAFKRLGIETKFVNGDAAEDFAKLIDDKTKAIYIETIGNPKYNVPDFEKITKLAHEHGIPVVVDNTFGAGGFLVNPIAHGADIVVHSATKWIGGHGTTIAGVIVDSGNFPWTEYPEKYPQFSKPSEGYHGLVLSDALGKAAYIGHLRIELLRDLGPALNPFGSFLLLQGLETLSLRVERQSENALKLAQWLEKNPNVESVSYLGLPSHESHELSKKYLNNDAKYFGGALAFTVKDITNTSSDPFNEASPKLVDNLEIASNLANVGDSKTLVIAPWFTTHQQLSDEEKLASGVTKGLIRVSTGTEYIDDIINDFEQAFKKVYNN
# Experiments:
# S = experiment: purified protein; conditions: O-acetyl-L-homoserine co-substrate, 0.2 mM PLP, 50 mM Tris-HCl pH 8.0, 100 mM NaCl, 37 °C, sulfide ion donor
# CaMet15NHp [1] = target: T1, CaMet15NHp (Candida albicans, UniProt Q59US5); experiment: RP-HPLC-DAD of L-homocysteine derivatized with DTNB; format: biochemical; conditions: read-out: % inhibition at 10 mM
# T1 construct: gene MET15; mostly homotetramer
# T1 sequence (Q59US5 2-440): B1 chain
# CaMet15NHp [2] = target: T1, CaMet15NHp; experiment: as above; format: biochemical; conditions: substrates OAH and Na2S, 0.2 mM PLP, pH 8.0, 37 °C; racemate
# purified protein = substrate: CC(=O)OCC[C@H](N)C(=O)O; experiment: purified protein; conditions: Na2S co-substrate, 0.2 mM PLP, 50 mM Tris-HCl pH 8.0, 100 mM NaCl, 37 °C
molecule,measurement,setting,value
CaMet15NHp (Candida albicans SC5314),Km,S,0.027 ± 0.0021 mM
"CC(=O)NCC[C@H](N)C(=O)O [AcDAB, N[4]-acetyl-(S)−2,4-diaminobutanoic acid]",inhibition at 10000 µM,CaMet15NHp [1],~70%
"C=CCC(N)C(=O)O (racemic) [DL-ALG, DL-2-allylglycine]",% inhibition at 10 mM,CaMet15NHp [2],"DL-2-allyglycine (DL-ALG), and DL-glufosinate (DL-GLUF) were slightly inhibitory"
"CP(=O)(O)CCC(N)C(=O)O (racemic) [DL-GLUF, DL-glufosinate]",% inhibition at 10 mM,CaMet15NHp [2],"DL-2-allyglycine (DL-ALG), and DL-glufosinate (DL-GLUF) were slightly inhibitory"
"CC(C)(S)[C@H](N)C(=O)O [L-PEN, L-penicillamine]",inhibition at 10000 µM,CaMet15NHp [1],> 50%
"N[C@@H](CCNC(=O)c1ccccc1)C(=O)O [BzDAB, 3-benzamido-1-carboxypropan-1-aminium chloride]",inhibition at 10000 µM,CaMet15NHp [1],~44%
"CSCC[C@H](N)C(=O)O [L-Met, L-methionine]",inhibition at 10000 µM,CaMet15NHp [1],< 15%
B1,Km,purified protein,9.12 ± 1.77 mM
